Test results: US20220213099A1, “PRODRUG COMPOUNDS” (BRISTOL-MYERS SQUIBB COMPANY, priority 2019, published 2022)
≈ marks a conversion by molar mass, not a printed value. Counter-ions that a name gives are not always drawn. Like-named read-outs stand apart in the source and are kept apart here.

Legend:
[1] = Solubility evaluation in aqueous buffer; type: physicochemical; conditions: thermodynamic from solid, about 24 hours equilibration
Description: The solid powder of an individual prodrug was equilibrated in aqueous buffers of pH 1, 4 and 6.5 at 25° C. for about 24 hours. After equilibration, the excess solid was separated by filtration using 0.45 μm membrane filter and the filtrate was collected in suitable glass vial. The filtrate was diluted appropriately using respective buffers/diluent and analyzed by a reversed phase LC method with UV detection.

[2] = Stability evaluation in aqueous buffer; type: physicochemical; conditions: aqueous buffer, 37° C., about 50 μg/mL, about 15% v/v acetonitrile
Description: The stability study of an individual prodrug was conducted with about 50 μg/mL solutions in aqueous buffers of pH 1 (0.1 M HCl), 4 (acetate buffer) and 6.5 (phosphate buffer) at 37° C. for 24 hours. About 15% v/v acetonitrile was used in these pH buffers as a co-solvent to obtain clear solutions of prodrugs. The sample analysis was carried out using a generic reversed phase liquid chromatographic (LC) method with UV detection. The area percent (AP) loss of the prodrug peak was quantified as a function of time. The appearance of parent peak was identified from the chromatographic retention time. The half-life (t1/2, h) of the prodrug was calculated by using a pseudo-first order equation from a AP loss vs time plot.

[3] = tested on: rat rIALP; test: Recombinant intestinal alkaline phosphatase (rIALP) assay, rat; type: in vitro ADME; conditions: 100 mM Tris-HCl buffer pH 7.4, 37° C., 120 minutes incubation, read-out: t1/2 in rat rIALP
Description: (§1) Examples 8 and 9 were evaluated in this assay. To assess the potential for generation of parent drug from the phosphate prodrugs, 100 μL of rIALP was dissolved in 100 mM Tris-HCl buffer (pH 7.4) and it was added to 100 μL of freshly prepared prodrug solution (10 mM) prepared in the same buffer. Incubations were performed in triplicate using 96-well plates (Waters, Milford, Mass.) at 37° C. in a shaking water bath (Julabo, Allentown, Pa.). The prodrug and enzyme solution were pre-warmed at 37° C. before the reaction was initiated by addition of substrate. The incubation was performed for 120 minutes with […] taken at 0, 5, 10, 15, 30, 60, 90, and 120 minutes. The assays were terminated at designated time points by the addition of 200 μL of ice-cold acetonitrile containing internal standard followed by centrifugation at 4000 g for 4 minutes. The supernatant was transferred to a new 96-well plate for analysis by ultra-performance liquid chromatography combined with tandem mass spectrometry (UPLC-MS/MS). The t1/2 value for each prodrug/protein combination was determined from the natural logarithm of percent remaining versus time plots.

[4] = biological target: T1, human rIALP (Homo sapiens, UniProt P09923); test: Recombinant intestinal alkaline phosphatase (rIALP) assay, human; type: in vitro ADME; conditions: 100 mM Tris-HCl buffer pH 7.4, 37° C., 120 minutes incubation, read-out: t1/2 in human rIALP
T1 sequence (P09923 20-503 limits assumed): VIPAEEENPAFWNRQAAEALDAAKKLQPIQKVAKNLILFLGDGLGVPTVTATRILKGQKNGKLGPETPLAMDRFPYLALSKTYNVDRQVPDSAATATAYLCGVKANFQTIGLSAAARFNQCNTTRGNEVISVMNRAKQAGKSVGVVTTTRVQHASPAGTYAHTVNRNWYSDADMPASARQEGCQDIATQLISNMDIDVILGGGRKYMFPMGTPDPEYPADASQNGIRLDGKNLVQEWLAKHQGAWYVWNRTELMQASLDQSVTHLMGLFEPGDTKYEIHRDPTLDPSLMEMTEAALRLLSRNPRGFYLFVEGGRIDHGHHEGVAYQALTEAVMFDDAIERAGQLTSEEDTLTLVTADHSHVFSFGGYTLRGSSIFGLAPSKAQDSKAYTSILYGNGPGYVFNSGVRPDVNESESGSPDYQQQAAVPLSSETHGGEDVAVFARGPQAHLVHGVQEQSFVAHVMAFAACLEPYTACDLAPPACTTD
Description: as §1

[5] = aqueous buffer, 25 °C, pH 1, simulated gastric fluid, aqueous buffer pH 1, 25° C., read-out: Solubility (mg/mL) at 25° C. pH 1
[6] = aqueous buffer, 25 °C, pH 4, aqueous buffer, aqueous buffer pH 4, 25° C., read-out: Solubility (mg/mL) at 25° C. pH 4
[7] = aqueous buffer, 25 °C, pH 6.5, aqueous buffer, aqueous buffer pH 6.5, 25° C., read-out: Solubility (mg/mL) at 25° C. pH 6.5
[8] = pH 1, pH 1 (0.1 M HCl), read-out: Stability (t1/2, h) at 37° C. pH 1 (converted)
[9] = pH 4, pH 4 (acetate buffer), read-out: Stability (t1/2, h) at 37° C. pH 4 (converted)
[10] = pH 6.5, pH 6.5 (phosphate buffer), read-out: Stability (t1/2, h) at 37° C. pH 6.5 (converted)

| solubility [1, 5] [mg/mL] | solubility [1, 6] [mg/mL] | solubility [1, 7] [mg/mL] | half-life [2, 8] [h] | half-life [2, 9] [h] | half-life [2, 10] [h] | half-life at 5 mM [3] [min] | half-life at 5 mM [4] [h] | SMILES | solubility ([1]; simulated gastric fluid, aqueous buffer pH 1, 25° C., read-out: Solubility (mg/mL) at 25° C. pH 1) [mg/mL] | solubility ([1]; aqueous buffer pH 4, 25° C., read-out: Solubility (mg/mL) at 25° C. pH 4) [mg/mL] | solubility ([1]; aqueous buffer pH 6.5, 25° C., read-out: Solubility (mg/mL) at 25° C. pH 6.5) [mg/mL] | half-life ([2]; pH 1 (0.1 M HCl), read-out: Stability (t1/2, h) at 37° C. pH 1 (converted)) [h] | half-life ([2]; pH 4 (acetate buffer), read-out: Stability (t1/2, h) at 37° C. pH 4 (converted)) [h] | half-life ([2]; pH 6.5 (phosphate buffer), read-out: Stability (t1/2, h) at 37° C. pH 6.5 (converted)) [h] |
| --- | --- | --- | --- | --- | --- | --- | --- | --- | --- | --- | --- | --- | --- | --- |
| > 1.09 | 0.7 (≈ 1050 µM) | > 1.01 | 157 | 207 | 65 |  |  | Cc1c(-c2c(C(C)C)c3cc(C4CCN(CC(N)=O)CC4)ccc3n2C(=O)CN(C)C(=O)OCOP(=O)(O)O)cn2ncnc2c1C [Example 19, (Phosphonooxy)methyl (2-(5-(1-(2-amino-2-oxoethyl)piperidin-4-yl)-2-(7,8-dimethyl-[1,2,4]triazolo[1,5-a]pyridin-6-yl)-3-isopropyl-1H-indol-1-yl)-2-oxoethyl)(methyl) carbamate] |  |  |  |  |  |  |
| > 0.82 | > 0.85 |  | > 500 | 9.6 | 0.1 |  |  | CNCCN(C)C(=O)OC[N+]1(CC(N)=O)CCC(c2ccc3[nH]c(-c4cn5ncnc5c(C)c4C)c(C(C)C)c3c2)CC1 (stereo not drawn) [Example 23, 1-(2-Amino-2-oxoethyl)-4-(2-(7,8-dimethyl-[1,2,4]triazolo[1,5-a]pyridin-6-yl)-3-isopropyl-1H-indol-5-yl)-1-(((methyl(2-(methylamino)ethyl)carbamoyl)oxy)methyl) piperidin-1-ium trifluoroacetate] |  |  |  |  |  |  |
| > 1.39 | > 2.93 | 0.1 (≈ 194 µM) | > 500 | > 500 | > 500 |  |  | CCOC(=O)n1c(-c2cn3ncnc3c(C)c2C)c(C(C)C)c2cc(C3CCN(CC(N)=O)CC3)ccc21 [Example 24, Ethyl 5-(1-(2-amino-2-oxoethyl)piperidin-4-yl)-2-(7,8-dimethyl-[1,2,4]triazolo[1,5-a]pyridin-6-yl)-3-isopropyl-1H-indole-1-carboxylate] |  |  |  |  |  |  |
| > 1.41 | 1.28 (≈ 2700 µM) | 0.01 (≈ 21.1 µM) | 179 | > 500 | > 500 |  |  | Cc1c(-c2c(C(C)C)c3cc(C4CCN(CC(N)=O)CC4)ccc3n2CO)cn2ncnc2c1C [Example 25, 2-(4-(2-(7,8-Dimethyl-[1,2,4]triazolo[1,5-a]pyridin-6-yl)-1-(hydroxymethyl)-3-isopropyl-1H-indol-5-yl)piperidin-1-yl)acetamide] |  |  |  |  |  |  |

More lines, now with the values behind:

| SMILES | solubility [1, 5] [mg/mL] | solubility [1, 6] [mg/mL] | solubility [1, 7] [mg/mL] | half-life [2, 8] [h] | half-life [2, 9] [h] | half-life [2, 10] [h] | half-life at 5 mM [3] [min] | half-life at 5 mM [4] [h] | solubility ([1]; simulated gastric fluid, aqueous buffer pH 1, 25° C., read-out: Solubility (mg/mL) at 25° C. pH 1) [mg/mL] | solubility ([1]; aqueous buffer pH 4, 25° C., read-out: Solubility (mg/mL) at 25° C. pH 4) [mg/mL] | solubility ([1]; aqueous buffer pH 6.5, 25° C., read-out: Solubility (mg/mL) at 25° C. pH 6.5) [mg/mL] | half-life ([2]; pH 1 (0.1 M HCl), read-out: Stability (t1/2, h) at 37° C. pH 1 (converted)) [h] | half-life ([2]; pH 4 (acetate buffer), read-out: Stability (t1/2, h) at 37° C. pH 4 (converted)) [h] | half-life ([2]; pH 6.5 (phosphate buffer), read-out: Stability (t1/2, h) at 37° C. pH 6.5 (converted)) [h] |
| --- | --- | --- | --- | --- | --- | --- | --- | --- | --- | --- | --- | --- | --- | --- |
| Cc1c(-c2[nH]c3ccc(C4CCN(CC(N)=O)CC4)cc3c2C(C)C)cn2nc[n+](COP(=O)(O)O)c2c1C (single isomer, unassigned) [Example 8, 6-(5-(1-(2-Amino-2-oxoethyl)piperidin-4-yl)-3-isopropyl-1H-indol-2-yl)-7,8-dimethyl-1-((phosphonooxy)methyl)-[1,2,4]triazolo[1,5-a]pyridin-1-ium trifluoroacetate] | > 0.86 | 0.03 | 0.86 | > 500 | > 500 | > 500 | < 5 | < 0.167 |  |  |  |  |  |  |
| Cc1c(-c2c(C(C)C)c3cc(C4CCN(CC(N)=O)CC4)ccc3n2C(=O)CCCOP(=O)(O)O)cn2ncnc2c1C [Example 10, 4-(5-(1-(2-Amino-2-oxoethyl)piperidin-4-yl)-2-(7,8-dimethyl-[1,2,4]triazolo[1,5-a]pyridin-6-yl)-3-isopropyl-1H-indol-1-yl)-4-oxobutyl dihydrogen phosphate] | 0.43 | 0.1 | 0.12 | 347 | > 500 | > 500 |  |  |  |  |  |  |  |  |
| Cc1c(-c2c(C(C)C)c3cc(C4CCN(CC(N)=O)CC4)ccc3n2SC[C@H](N)C(=O)O)cn2ncnc2c1C [Example 11, S-(5-(1-(2-Amino-2-oxoethyl)piperidin-4-yl)-2-(7,8-dimethyl-[1,2,4]triazolo[1,5-a]pyridin-6-yl)-3-isopropyl-1H-indol-1-yl)-L-cysteine] | > 1.03 | 0.007 (≈ 12.4 µM) | > 1.02 | > 500 | > 500 | 154 |  |  |  |  |  |  |  |  |
| CNCC(=O)OCc1cccnc1N(C)C(=O)OC(C)[N+]1(CC(N)=O)CCC(c2ccc3[nH]c(-c4cn5ncnc5c(C)c4C)c(C(C)C)c3c2)CC1 (stereo not drawn) [Example 14, 1-(2-Amino-2-oxoethyl)-4-(2-(7,8-dimethyl-[1,2,4]triazolo[1,5-a]pyridin-6-yl)-3-isopropyl-1H-indol-5-yl)-1-(1-((methyl(3-(((methylglycyl)oxy)methyl)pyridin-2-yl)carbamoyl)oxy)ethyl)piperidin-1-ium ditrifluoroacetate] | > 1.51 | > 0.98 |  | 179 | 85 | 1.6 |  |  |  |  |  |  |  |  |
| Cc1c(-c2c(C(C)C)c3cc(C4CCN(CC(N)=O)CC4)ccc3n2C(=O)OCOC(=O)C2(N)CC2)cn2ncnc2c1C [Example 15, ((1-Aminocyclopropane-1-carbonyl)oxy)methyl 5-(1-(2-amino-2-oxoethyl)piperidin-4-yl)-2-(7,8-dimethyl-[1,2,4]triazolo[1,5-a]pyridin-6-yl)-3-isopropyl-1H-indole-1-carboxylate trifluoroacetate] | > 0.94 | > 0.9 | 0.8 | 347 | 139 | 39 |  |  |  |  |  |  |  |  |
| COc1cc(C(=O)OCOC(=O)n2c(-c3cn4ncnc4c(C)c3C)c(C(C)C)c3cc(C4CCN(CC(N)=O)CC4)ccc32)ccc1OP(=O)(O)O [Example 22, ((3-Methoxy-4-(phosphonooxy)benzoyl)oxy)methyl 5-(1-(2-amino-2-oxoethyl)piperidin-4-yl)-2-(7,8-dimethyl-[1,2,4]triazolo[1,5-a]pyridin-6-yl)-3-isopropyl-1H-indole-1-carboxylate] |  |  |  |  |  |  |  |  | > 1.02 | 0.02 (≈ 26.7 µM) | 0.02 (≈ 26.7 µM) | 400 | > 500 | > 500 |
